The source of these data is patent US20220226281A1, “COMPOUNDS FOR USE IN ANTI-CANCER IMMUNOTHERAPY” (priority 2019, published 2022).

In this assay the test system is splenocytes from LCMV-CL13 infected IFN-γ-YFP mice. It counts as cell-based.
`O=S(=O)(NCCCCCCc1ccccc1)c1cccc2c(Cl)cccc12` [5-chloro-N-(6-phenylhexyl)naphthalene-1-sulfonamide]: the “Mean Z-score at 1 μM (reversal of T-cell exhaustion)” value (“Mean Z-score at 1 μM” below) was determined as 11.1.
As for `CC(C)[C@H]1C(=O)N[C@H](CO)Cc2cc(NC(=O)/C=C/C=C/c3ccc(C(F)(F)F)cc3)ccc2N1C` [TPPB], the figure is 4.6.
The same measure for `CCCCCCCCCCCCCC(=O)O[C@@H]1[C@@H](C)[C@@]2(O)C(C=C(CO)C[C@]3(O)C(=O)C(C)=C[C@@H]23)[C@@H]2C(C)(C)[C@]12OC(C)=O` (some centres unmarked) [12-O-tetradecanoylphorbol-13-acetate]: 17.8.
As for `CO[C@@H](CC[C@H](C)[C@H]1O[C@@]23C[C@H](OC(=O)C2=C(O)[C@H](C)CC3(C)C)[C@@H]1C)c1cccc(O)c1` [Neo-debromoaplysiatoxin B], the figure is 3.6; as for `CC(=O)O[C@@]12C[C@@H](C)[C@@]3(O)[C@@H](C=C(CO)C[C@]4(O)C(=O)C(C)=C[C@@H]34)[C@@H]1C2(C)C` [prostratin], 48.9; as for `C/C=C(/C)C(=O)O[C@H]1C(C)=C[C@]23C(=O)[C@@H](C=C(CO)[C@@H](O)[C@]12O)[C@H]1[C@@H](C[C@H]3C)C1(C)C` [Ingenol-3-angelate], 30.9.
For the molecule `CC(=O)O[C@@]12[C@H](O)[C@@H](C)[C@@]3(O)C(C=C(CO)C[C@]4(O)C(=O)C(C)=C[C@@H]34)[C@@H]1C2(C)C` (some centres unmarked) [Phorbol-13-acetate], the “Mean Z-score at 1 μM” value came out at 0.9.
`CC1=C[C@]23C(=O)[C@@H](C=C(CO)[C@@H](O)[C@]2(O)[C@H]1O)[C@H]1[C@@H](C[C@H]3C)C1(C)C` [Ingenol]: the “Mean Z-score at 1 μM” value is reported as 0.6.
